In patent publication US20090042905A1, “TRIAZOLE DERIVATIVES AS LIGANDS OF G-PROTEIN COUPLED RECEPTORS” (AETERNA ZENTARIS GmbH, priority 2007, published 2009):
Where two headings read alike, the source gives them in different places.

Key:
[1] = tested on: differentiated 3T3-L1 cells; assay: Inhibition of isoproterenol-induced lipolysis by QRFP, and its antagonism by compounds, in an adipocyte cell line model (glycerol release); type: cell-based, mouse; conditions: for IC50 of QRFP-26 (inhibition of isoproterenol-induced lipolysis), shifted in presence of compound: 100 nM isoproterenol; for effect on the inhibitory effect of QRFP on isoproterenol-induced lipolysis: compound at 10^−9 to 10^−7 M
Experimental: The effectiveness of compounds of the invention to antagonize the QRFP-induced inhibition of isoproterenol-induced lipolysis was investigated using an adipocyte cell line model.
Cells were then were maintained in DMEM with 10% FBS for 2 days before lipolysis study.
All the cellular assays were performed in triplicate for each time point if not otherwise specified.
Differentiated 3T3-L1 cells were first washed with DMEM and incubated with DMEM containing 200 nM adenosine for 1 h at 37° C. The incubation medium was then removed. The lipolysis was induced by incubating the cells with DMEM supplemented with 2% bovine serum albumin fatty acid free and adenosine deaminase (1 U/mL) containing 100 nM of isoproterenol for 90 min at 37° C. The incubation medium (600 μL) was collected for glycerol assay following triglyceride hydrolysis.
After the incubation period, the incubation medium (600 μL) was collected for free glycerol measurement.
To document the antagonistic effect of compounds of the invention on the antilipolytic effect of QRFP, the dose-response curve of QRFP was carried out as described above in presence of selected compounds of the invention at 10^−9 to 10^−7 M. To document the net effect of QRFP and selected compounds of the invention on lipolysis induced by isoproterenol as control, cells were incubated in absence of isoproterenol in presence of QRFP or selected compounds of the invention at 10^−6 M.
Glycerol released was calculated as μmol/mg of total protein.
Lipolysis index was calculated as: (μmol of glycerol released/mg of protein of sample minus μmol of glycerol released/mg of protein in basal condition)/(μmol of glycerol released/mg of protein induced by 100 nM of isoproterenol minus μmol of glycerol released/mg of protein of basal condition).

[2] = tested on: C57BL/6 male mice fed a high-fat diet; assay: Diet-induced obesity (DIO) in mice, subchronic s.c. treatment; type: in vivo, mouse; conditions: for Fat mass / Food efficiency / Lean mass / Σ Fat depots / Body weight gain / Cumulative food intake / Glucose / Insulin: 2 weeks; for Body weight gain / Cumulative food intake: difference day 35 vs day 21; for body weight gain (in words): two weeks of treatment; for Glucose / Insulin: plasma
Experimental: The effectiveness of selected compounds of the invention, i.e. their subchronic effects, on the energy balance of mice rendered obese by a high-fat diet was investigated.
Adult C57BL/6 male mice were fed ad libitum with either chow or a high-fat diet (60% of the calorie content from fat) for 5 weeks.
C57BL/6 mice fed with a high-fat diet readily develop obesity and represent a widely used model for investigating human obesity.
One-third of the dose was injected in the morning and two-third in the evening.
Body weight and food intake were monitored every day during the experiment. Body composition (lean and fat mass) was assessed using dual energy x-ray absorptiometry (DEXA) on day 0, 13 and 27. Blood was also sampled at sacrifice for the determination of plasma glucose, insulin and triglycerides.

[3] = tested on: male C57BL/6J mice; assay: Fasting-induced feeding behavior (food intake) of mice; type: in vivo; conditions: oral dose 2 μmol per mouse, 30 min before food
Experimental: The effectiveness of selected compounds of the invention on fasting-induced feeding behavior of mice was investigated.
The experiments were performed according to Asakawa A et al. (Asakawa A et al., Gut 2003, 52: 947-952) with the following technical details:
Preparation of compounds of the invention: dissolved in dimethylsulfoxide (DMSO) and then diluted in distilled water (i.e. 0.5, 1 and 10% DMSO for 0.5, 1 and 2 μmol/mouse, respectively);
Preparation of reference substance (positive control) sibutramine: dissolved in distilled water;
Control substance (negative vehicle control): 10% DMSO in distilled water (compounds of the invention); distilled water (sibutramine);
Route of administration: p.o.;
Pretreatment time: 30 min before presenting the food to the animals;
Volume of administration: 0.5 ml/mouse;
Animals: male C57BL/6J mice;
Body weight range: 18.3-21.4 g

[4] = tested on: male C57BL/6J mice; assay: as above; type: in vivo; conditions: po
[5] = 6 mg/kg per day and 24 mg/kg per day
[6] = 20 min, read-out: change of food intake - compounds versus vehicle treated negative control, at 20 min
[7] = 1 h, read-out: change of food intake - compounds versus vehicle treated negative control, at 1 h
[8] = 2 h, read-out: change of food intake - compounds versus vehicle treated negative control, at 2 h
[9] = 4 h, read-out: change of food intake - compounds versus vehicle treated negative control, at 4 h

For `CC(C)(N)C(=O)N[C@H](Cc1c[nH]c2ccccc12)c1nnc(Cc2ccccc2)n1Cc1ccccn1` [Compound 39, (R)-N-(1-(5-benzyl-4-(pyridin-2-ylmethyl)-4H-1,2,4-triazol-3-yl)-2-(1H-indol-3-yl)ethyl)-2-amino-2-methylpropanamide], the “IC50 of QRFP-26 (inhibition of isoproterenol-induced lipolysis), shifted in presence of compound” value ([1]; compound at 10^−7 M) was 6.9 nM, the “IC50 of QRFP-26 (inhibition of isoproterenol-induced lipolysis), shifted in presence of compound” value ([1]; compound at 10^−8 M) was 6.6 nM and the “IC50 of QRFP-26 (inhibition of isoproterenol-induced lipolysis), shifted in presence of compound” value ([1]; compound at 10^−9 M) was 5.6 nM. For the same molecule, the “effect on the inhibitory effect of QRFP on isoproterenol-induced lipolysis” value [1] was “non-competitive antagonist effect”.

`CC(C)(N)C(=O)N[C@H](Cc1c[nH]c2ccccc12)c1nnc(CCCc2c[nH]c3ccccc23)n1Cc1ccccc1` [Compound 9, (R)-N-(1-(5-(3-(1H-indol-3-yl)propyl)-4-benzyl-4H-1,2,4-triazol-3-yl)-2-(1H-indol-3-yl)ethyl)-2-amino-2-methylpropanamide] showed a Fat mass ([2]; 1.5 mg/kg per day s.c.) of 7.9 g, a Food efficiency ([2]; 1.5 mg/kg per day s.c.) of 1.30 mg/kJ and a Lean mass ([2]; 1.5 mg/kg per day s.c.) of 20.2 g. The “Σ Fat depots” value ([2]; 1.5 mg/kg per day s.c.) was 1137 mg, the Body weight gain ([2]; 1.5 mg/kg per day s.c.) was 1.03 g and the Cumulative food intake ([2]; 1.5 mg/kg per day s.c.) was 793 kJ. The “size of the fat depots (in words)” value [2, 5] was “reduced”, the “body weight gain (in words)” value [2, 5] was “significantly decreased” and the Fat mass ([2]; 6.0 mg/kg per day s.c.) was 5.8 g. For the same molecule, the Food efficiency ([2]; 6.0 mg/kg per day s.c.) was 0.25 mg/kJ, the Lean mass ([2]; 6.0 mg/kg per day s.c.) was 21.2 g and the “Σ Fat depots” value ([2]; 6.0 mg/kg per day s.c.) was 791 mg. It also gave a Body weight gain ([2]; 6.0 mg/kg per day s.c.) of 0.20 g, a Cumulative food intake ([2]; 6.0 mg/kg per day s.c.) of 809 kJ and a Fat mass ([2]; 24 mg/kg per day s.c.) of 5.7 g. The Food efficiency ([2]; 24 mg/kg per day s.c.) was -0.68 mg/kJ, the Lean mass ([2]; 24 mg/kg per day s.c.) was 20.5 g and the “Σ Fat depots” value ([2]; 24 mg/kg per day s.c.) was 792 mg. For the same molecule, the Body weight gain ([2]; 24 mg/kg per day s.c.) was -0.54 g, the Cumulative food intake ([2]; 24 mg/kg per day s.c.) was 790 kJ and the Glucose ([2]; 1.5 mg/kg per day s.c.) was 14.9 mmol/L. For the same molecule, the Insulin ([2]; 1.5 mg/kg per day s.c.) was 63.8 pmol/L, the Glucose ([2]; 6.0 mg/kg per day s.c.) was 15.6 mmol/L and the Insulin ([2]; 6.0 mg/kg per day s.c.) was 57.4 pmol/L. It also gave a Glucose ([2]; 24 mg/kg per day s.c.) of 13.1 mmol/L and an Insulin ([2]; 24 mg/kg per day s.c.) of 52.0 pmol/L.

Work on `COc1ccc(Cn2c(CCc3ccccc3)nnc2[C@@H](Cc2c[nH]c3ccccc23)NC(=O)CN)cc1` [Compound 50, (R)-N-(1-(4-(4-methoxybenzyl)-5-phenethyl-4H-1,2,4-triazol-3-yl)-2-(1H-indol-3-yl)ethyl)-2-aminoacetamide] yielded a change in vivo at 2 µmol/mouse [3, 6] of -54%, a change in vivo at 2 µmol/mouse [3, 7] of -44% and a change in vivo at 2 µmol/mouse [3, 8] of -44%. It also gave a change in vivo at 2 µmol/mouse [3, 9] of -28%, a Fat mass ([2]; 1.5 mg/kg per day s.c.) of 7.6 g and a Food efficiency ([2]; 1.5 mg/kg per day s.c.) of 1.88 mg/kJ. The Lean mass ([2]; 1.5 mg/kg per day s.c.) was 21.3 g, the “Σ Fat depots” value ([2]; 1.5 mg/kg per day s.c.) was 1101 mg and the Body weight gain ([2]; 1.5 mg/kg per day s.c.) was 1.61 g. For the same molecule, the Cumulative food intake ([2]; 1.5 mg/kg per day s.c.) was 852 kJ, the “body weight gain (in words)” value [2, 5] was “significantly decreased” and the Fat mass ([2]; 6.0 mg/kg per day s.c.) was 8.2 g. The Food efficiency ([2]; 6.0 mg/kg per day s.c.) was 1.77 mg/kJ, the Lean mass ([2]; 6.0 mg/kg per day s.c.) was 20.4 g and the “Σ Fat depots” value ([2]; 6.0 mg/kg per day s.c.) was 1192 mg. The Body weight gain ([2]; 6.0 mg/kg per day s.c.) was 1.44 g, the Cumulative food intake ([2]; 6.0 mg/kg per day s.c.) was 813 kJ and the “size of the fat depots (in words)” value ([2]; 24 mg/kg per day) was “reduced”. The Fat mass ([2]; 24 mg/kg per day s.c.) was 6.3 g, the Food efficiency ([2]; 24 mg/kg per day s.c.) was -0.05 mg/kJ and the Lean mass ([2]; 24 mg/kg per day s.c.) was 20.6 g. For the same molecule, the “Σ Fat depots” value ([2]; 24 mg/kg per day s.c.) was 902 mg, the Body weight gain ([2]; 24 mg/kg per day s.c.) was -0.04 g and the Cumulative food intake ([2]; 24 mg/kg per day s.c.) was 801 kJ. The Glucose ([2]; 1.5 mg/kg per day s.c.) was 15.6 mmol/L, the Insulin ([2]; 1.5 mg/kg per day s.c.) was 66.3 pmol/L and the Glucose ([2]; 6.0 mg/kg per day s.c.) was 15.2 mmol/L. The Insulin ([2]; 6.0 mg/kg per day s.c.) was 64.8 pmol/L, the Glucose ([2]; 24 mg/kg per day s.c.) was 15.4 mmol/L and the Insulin ([2]; 24 mg/kg per day s.c.) was 60.3 pmol/L.

For `COc1ccc(Cn2c(CCc3ccccc3)nnc2[C@@H](Cc2c[nH]c3ccccc23)NC(=O)c2ccccn2)cc1` [Compound 79, (R)-N-(1-(4-(4-methoxybenzyl)-5-phenethyl-4H-1,2,4-triazol-3-yl)-2-(1H-indol-3-yl)ethyl)picolinamide], the “IC50 of QRFP-26 (inhibition of isoproterenol-induced lipolysis), shifted in presence of compound” value ([1]; compound at 10^−7 M) was 124.4 nM, the “IC50 of QRFP-26 (inhibition of isoproterenol-induced lipolysis), shifted in presence of compound” value ([1]; compound at 10^−9 M) was 2.829 nM and the “effect on the inhibitory effect of QRFP on isoproterenol-induced lipolysis” value [1] was “antagonist effect”.

In the case of `CC(C)CC(N(C)C)C1(c2ccc(Cl)cc2)CCC1` (stereo not drawn) [Sibutramine, 1-(4-chlorophenyl)-N,N-dimethyl-alpha-(2-methylpropyl)-cyclobutane-methanamine], the change in vivo at 0.6 µmol/mouse [4, 6] is reported as -63%, the change in vivo at 0.6 µmol/mouse [4, 7] is reported as -66% and the change in vivo at 0.6 µmol/mouse [4, 8] is reported as -46%. The change in vivo at 0.6 µmol/mouse [4, 9] was -21%.
